Source: US20090004232A1, “BIOACTIVE PHARMACEUTICAL/COSMETIC COMPOSITIONS AND MIXED SOLUBILIZATION PROCESS FOR THE FORMULATION THEREOF” (priority 2005, published 2009)

Assay: Physical stability of the emulsions on storage (phase shift, recrystallization / crystal growth of the active principle)
Assay type: physicochemical
Method: According to the invention, another physical stability parameter observed is, in particular, the absence of recrystallization phenomenon at ambient temperature and at 4° C., over three months.
In the present text, the expression “active principle in dissolved form” means a molecular state dispersion in a liquid, no crystallization of the active principle being visible to the naked eye nor even using a crossed polarization optical microscope, or using other more accurate techniques such as electron microscopy. Preferably, the bioactive principle particles have a size below 1 nm.
Preferably, according to the invention, the expression “active principle in dissolved form” means a molecular state dispersion in a liquid for which no crystallization of the active principle is visible to the naked eye or using an optical microscope.

- crystal growth phenomena of the active principle (single phase solubilization, storage at 4° C.): appeared from the first month
SMILES: CC/C(=C\C=C\C(O)(CC)CC)c1cccc(OCc2ccc(CO)c(CO)c2)c1 [(4E,6E)-7-[3-(3,4-bishydroxymethylbenzyloxy)phenyl]-3-ethylnona-4,6-dien-3-ol]
- physical stability of the emulsion over time (active principle solubilized in a single phase (hydrophilic phase or lipophilic phase)): have not made it possible to obtain an emulsion that was physically stable over time
